Data on seven molecules can be found in ChEMBL document CHEMBL1201862, “PubChem BioAssay data set” (2004).

Calls of active or inactive are those of the source.

For experiment [1], the target named is T1, Rac GTPase-activating protein 1 (Homo sapiens, UniProt Q9H0H5).
T1 sequence (Q9H0H5 whole entry): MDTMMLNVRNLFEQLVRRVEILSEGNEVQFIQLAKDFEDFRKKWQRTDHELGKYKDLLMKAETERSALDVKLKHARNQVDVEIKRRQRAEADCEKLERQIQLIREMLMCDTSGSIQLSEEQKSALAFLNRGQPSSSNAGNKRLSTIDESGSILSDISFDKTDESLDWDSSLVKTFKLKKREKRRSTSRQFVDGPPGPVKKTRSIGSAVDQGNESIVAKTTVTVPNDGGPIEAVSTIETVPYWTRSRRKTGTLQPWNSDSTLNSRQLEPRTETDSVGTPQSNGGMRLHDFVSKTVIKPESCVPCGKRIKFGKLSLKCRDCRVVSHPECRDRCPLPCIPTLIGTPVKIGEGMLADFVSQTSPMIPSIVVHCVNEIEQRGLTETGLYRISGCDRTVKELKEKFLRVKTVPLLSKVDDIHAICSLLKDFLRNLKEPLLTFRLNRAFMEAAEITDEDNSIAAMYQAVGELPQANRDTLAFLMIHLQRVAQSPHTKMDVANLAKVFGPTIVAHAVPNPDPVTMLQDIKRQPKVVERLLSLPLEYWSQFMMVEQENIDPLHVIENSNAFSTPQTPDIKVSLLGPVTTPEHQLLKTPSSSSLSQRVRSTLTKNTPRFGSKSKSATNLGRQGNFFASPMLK
Briefly: MgcRacGAP GTPase-activating activity inhibitors, confirmation, biochemical, ADP Hunter fluorescence, primary and confirmatory (AID 624330). The experiment is classed as functional.

Experiment [2] addresses T2, Nuclear receptor subfamily 0 group B member 1 (Homo sapiens, UniProt P51843).
T2 sequence (P51843 whole entry): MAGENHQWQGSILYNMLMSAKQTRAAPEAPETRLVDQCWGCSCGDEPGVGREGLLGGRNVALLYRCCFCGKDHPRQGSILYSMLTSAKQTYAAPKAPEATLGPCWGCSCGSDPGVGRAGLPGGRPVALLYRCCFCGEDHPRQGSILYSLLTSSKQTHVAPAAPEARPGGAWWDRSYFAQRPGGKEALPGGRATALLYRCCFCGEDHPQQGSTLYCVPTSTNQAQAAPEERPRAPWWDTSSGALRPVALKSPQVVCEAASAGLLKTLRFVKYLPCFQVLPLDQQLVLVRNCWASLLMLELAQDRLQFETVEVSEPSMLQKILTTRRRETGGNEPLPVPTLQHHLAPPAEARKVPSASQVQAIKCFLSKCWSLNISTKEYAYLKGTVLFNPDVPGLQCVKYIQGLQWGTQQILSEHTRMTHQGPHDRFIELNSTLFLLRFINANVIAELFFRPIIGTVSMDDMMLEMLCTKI
The experiment in a line: Luminescence-based cell-based high throughput dose response assay for inhibitors of the orphan nuclear receptor subfamily 0, group B, member 1 (DAX1; NR0B1). [Related pubchem assays (depositor defined):AID504766, AID504790]. The experiment is classed as functional.

Experiment [3] has as its system HEK293. Briefly: cells. Format: functional, cell-based. As to conditions: Homo sapiens.
The target of experiment [4] is Short transient receptor potential channel 6 (Mus musculus, UniProt Q61143). Briefly: TRPC6 inhibition potency of TRPC4 inhibitor analogs, dose response, selectivity assay for selective TRPC4 inhibitor project, HEK293 cells, membrane potential dye, IC50 (AID 492987). Format: functional, cell-based.
Short transient receptor potential channel 6, sequence (Q61143 whole entry): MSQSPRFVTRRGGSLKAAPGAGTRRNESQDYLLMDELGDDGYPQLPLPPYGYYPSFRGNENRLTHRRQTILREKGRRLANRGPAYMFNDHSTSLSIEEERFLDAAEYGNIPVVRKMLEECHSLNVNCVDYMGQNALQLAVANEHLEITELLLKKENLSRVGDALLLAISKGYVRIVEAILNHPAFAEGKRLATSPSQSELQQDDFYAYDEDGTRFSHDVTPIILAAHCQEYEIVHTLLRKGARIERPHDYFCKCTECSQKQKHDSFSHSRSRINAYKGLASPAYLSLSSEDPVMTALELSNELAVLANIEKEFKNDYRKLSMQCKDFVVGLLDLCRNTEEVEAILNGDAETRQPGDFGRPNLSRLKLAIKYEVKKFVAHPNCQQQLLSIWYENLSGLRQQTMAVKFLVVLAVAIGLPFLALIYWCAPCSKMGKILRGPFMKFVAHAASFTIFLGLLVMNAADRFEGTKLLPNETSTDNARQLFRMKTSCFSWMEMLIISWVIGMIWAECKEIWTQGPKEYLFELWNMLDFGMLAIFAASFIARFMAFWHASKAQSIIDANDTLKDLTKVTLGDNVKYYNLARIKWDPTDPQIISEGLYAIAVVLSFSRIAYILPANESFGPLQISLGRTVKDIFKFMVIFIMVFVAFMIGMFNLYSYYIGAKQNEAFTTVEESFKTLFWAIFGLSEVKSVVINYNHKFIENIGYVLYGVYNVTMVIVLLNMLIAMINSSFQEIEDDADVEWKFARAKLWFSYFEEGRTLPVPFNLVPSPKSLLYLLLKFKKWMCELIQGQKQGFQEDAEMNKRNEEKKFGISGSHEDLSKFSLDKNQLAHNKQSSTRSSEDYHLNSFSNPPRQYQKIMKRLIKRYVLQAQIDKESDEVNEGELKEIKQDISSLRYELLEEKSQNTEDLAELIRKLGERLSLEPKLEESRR
Experiment [5] addresses T3, Short transient receptor potential channel 4 (Mus musculus, UniProt Q9QUQ5).
T3 sequence (Q9QUQ5 whole entry): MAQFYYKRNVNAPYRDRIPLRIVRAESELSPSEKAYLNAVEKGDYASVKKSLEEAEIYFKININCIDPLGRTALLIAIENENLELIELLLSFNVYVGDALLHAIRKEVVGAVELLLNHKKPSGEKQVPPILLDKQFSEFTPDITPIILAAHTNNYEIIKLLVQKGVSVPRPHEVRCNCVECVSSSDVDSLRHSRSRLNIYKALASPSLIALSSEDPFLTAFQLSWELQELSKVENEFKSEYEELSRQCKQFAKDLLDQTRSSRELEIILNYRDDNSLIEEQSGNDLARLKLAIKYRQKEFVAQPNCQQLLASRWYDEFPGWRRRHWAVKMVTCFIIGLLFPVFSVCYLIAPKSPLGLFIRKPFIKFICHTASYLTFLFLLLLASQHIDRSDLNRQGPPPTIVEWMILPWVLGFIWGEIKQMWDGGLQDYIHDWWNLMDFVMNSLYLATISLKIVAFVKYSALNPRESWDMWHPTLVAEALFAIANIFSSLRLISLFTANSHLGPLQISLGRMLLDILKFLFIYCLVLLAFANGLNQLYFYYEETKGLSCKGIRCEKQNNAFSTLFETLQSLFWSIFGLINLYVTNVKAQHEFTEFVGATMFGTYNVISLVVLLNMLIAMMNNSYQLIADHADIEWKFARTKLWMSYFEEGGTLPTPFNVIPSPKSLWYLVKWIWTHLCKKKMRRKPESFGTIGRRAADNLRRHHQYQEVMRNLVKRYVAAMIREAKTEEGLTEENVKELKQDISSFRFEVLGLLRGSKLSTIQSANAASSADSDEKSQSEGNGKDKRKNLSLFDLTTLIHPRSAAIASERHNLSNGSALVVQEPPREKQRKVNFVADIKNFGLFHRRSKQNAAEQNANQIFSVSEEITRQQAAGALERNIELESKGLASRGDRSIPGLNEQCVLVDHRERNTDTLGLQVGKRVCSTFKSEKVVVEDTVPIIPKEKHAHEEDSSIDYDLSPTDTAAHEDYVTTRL
Briefly: TRPC4 inhibitor concentration-response, dose response, cell-based, HEK293 TRPC4/mu-opioid, DAMGO stimulus, Fluo-4 (AID 492994). The experiment is classed as functional.

The target in experiment [6] is T3, Short transient receptor potential channel 4. The experiment in a line: SAR Analysis for the identification of selective inhibits of the transient receptor potential cation channel C4 (TRPC4): Automated Electrophysiology_2. [Related pubchem assays (depositor defined):AID2256]. The experiment is classed as functional.
The nature of experiment [7]: C. albicans growth with fluconazole, confirmation, fluorescence, retest (AID 2467). Format: functional, cell-based.
The target of experiment [8] is ATP-dependent molecular chaperone HSP82 (Candida albicans (strain WO-1) (Yeast), UniProt C4YTQ8). The experiment in a line: loss of DOC-induced GRE-beta-galactosidase reporter signal, dose response, Hsp90 inhibitor project, S. cerevisiae, luminescence (AID 2400).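 Note: beta-galactosidase luminescence from glucocorticoid response element reporter as proxy for Hsp90 function; inhibitor potency where signal loss means Hsp90 inhibition.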 The experiment is classed as functional, cell-based.
Experiment [9] in a line: NIH-3T3 fibroblast cytotoxicity, dose response, cytotoxicity control, cell-based, fluorescence, Alamar Blue, secondary assay (AID 2327).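 Note: NIH-3T3 mouse fibroblasts cultured with fluconazole at 8 µg/mL.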 Format: functional. (In general: The colour change of resazurin is a common sign of viable cells or microbes.)
Experiment [10] has as its target Serine/threonine-protein phosphatase (Candida dubliniensis (strain CD36 / CBS 7987 / NCPF 3949 / NRRLY-17841) (Yeast), UniProt B9W6M3). The experiment in a line: calcineurin pathway inhibitors in yeast reporter, dose response, S. cerevisiae, CDRE-lacZ, luminescence, secondary (AID 2388).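 Note: yeast reporter cells carrying a calcineurin-responsive lacZ construct stimulated with calcium chloride; luminescent beta-galactosidase reporter signal in whole cells rather than isolated phosphatase activity; potency for inhibition where a drop in reporter signal means calcineurin blockade.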 The experiment is classed as functional, cell-based.
Experiment [11] in a line: THP-1 cell cytotoxicity, dose response, cytotoxicity control for Vif-APOBEC3G degradation inhibitor project, THP-1 cells (AID 1117359). Format: functional. As to conditions: Human immunodeficiency virus 1, THP-1.
Experiment [12] deals with CHO. The experiment in a line: cytotoxicity in TLR9-MyD88 CHO cells, dose response, cytotoxicity control for TLR9-MyD88 binding inhibitor project, cell-based, luminescence (AID 588339).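 Note: CHO cells stably coexpressing TLR9 and MyD88 fusions from primary screen; compound exposure lasted 48 hours before viability readout.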 The experiment is classed as functional, hamster. Conditions: Cricetulus griseus.
In experiment [13] the target is Beta Lactamase (Pseudomonas aeruginosa, UniProt Q932Y6). The experiment in a line: beta-lactamase reporter inhibitor potency, dose response, artefact control for TLR9-MyD88 binding inhibitor project, BLA reporter cells, FRET fluorescence (AID 588341).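 Note: cell based assay in CHO-K1 cells stably expressing beta-lactamase.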 Format: cell-based.
Beta Lactamase, sequence (Q932Y6 whole entry): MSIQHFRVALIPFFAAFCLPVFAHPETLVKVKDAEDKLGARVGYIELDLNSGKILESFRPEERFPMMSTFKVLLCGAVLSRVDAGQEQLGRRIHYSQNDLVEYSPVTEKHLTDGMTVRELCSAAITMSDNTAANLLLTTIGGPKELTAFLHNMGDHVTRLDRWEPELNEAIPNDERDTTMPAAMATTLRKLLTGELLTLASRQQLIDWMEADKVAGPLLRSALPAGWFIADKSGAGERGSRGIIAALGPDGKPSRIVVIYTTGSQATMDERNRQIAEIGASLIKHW
Experiment [14] deals with T4, Voltage-gated N-type calcium channel alpha-1B subunit/Amyloid beta A4 precursor protein-binding family A member 1 (Homo sapiens, UniProt Q00975+Q02410). Format: protein assay.
T4 sequence (Q00975 whole entry): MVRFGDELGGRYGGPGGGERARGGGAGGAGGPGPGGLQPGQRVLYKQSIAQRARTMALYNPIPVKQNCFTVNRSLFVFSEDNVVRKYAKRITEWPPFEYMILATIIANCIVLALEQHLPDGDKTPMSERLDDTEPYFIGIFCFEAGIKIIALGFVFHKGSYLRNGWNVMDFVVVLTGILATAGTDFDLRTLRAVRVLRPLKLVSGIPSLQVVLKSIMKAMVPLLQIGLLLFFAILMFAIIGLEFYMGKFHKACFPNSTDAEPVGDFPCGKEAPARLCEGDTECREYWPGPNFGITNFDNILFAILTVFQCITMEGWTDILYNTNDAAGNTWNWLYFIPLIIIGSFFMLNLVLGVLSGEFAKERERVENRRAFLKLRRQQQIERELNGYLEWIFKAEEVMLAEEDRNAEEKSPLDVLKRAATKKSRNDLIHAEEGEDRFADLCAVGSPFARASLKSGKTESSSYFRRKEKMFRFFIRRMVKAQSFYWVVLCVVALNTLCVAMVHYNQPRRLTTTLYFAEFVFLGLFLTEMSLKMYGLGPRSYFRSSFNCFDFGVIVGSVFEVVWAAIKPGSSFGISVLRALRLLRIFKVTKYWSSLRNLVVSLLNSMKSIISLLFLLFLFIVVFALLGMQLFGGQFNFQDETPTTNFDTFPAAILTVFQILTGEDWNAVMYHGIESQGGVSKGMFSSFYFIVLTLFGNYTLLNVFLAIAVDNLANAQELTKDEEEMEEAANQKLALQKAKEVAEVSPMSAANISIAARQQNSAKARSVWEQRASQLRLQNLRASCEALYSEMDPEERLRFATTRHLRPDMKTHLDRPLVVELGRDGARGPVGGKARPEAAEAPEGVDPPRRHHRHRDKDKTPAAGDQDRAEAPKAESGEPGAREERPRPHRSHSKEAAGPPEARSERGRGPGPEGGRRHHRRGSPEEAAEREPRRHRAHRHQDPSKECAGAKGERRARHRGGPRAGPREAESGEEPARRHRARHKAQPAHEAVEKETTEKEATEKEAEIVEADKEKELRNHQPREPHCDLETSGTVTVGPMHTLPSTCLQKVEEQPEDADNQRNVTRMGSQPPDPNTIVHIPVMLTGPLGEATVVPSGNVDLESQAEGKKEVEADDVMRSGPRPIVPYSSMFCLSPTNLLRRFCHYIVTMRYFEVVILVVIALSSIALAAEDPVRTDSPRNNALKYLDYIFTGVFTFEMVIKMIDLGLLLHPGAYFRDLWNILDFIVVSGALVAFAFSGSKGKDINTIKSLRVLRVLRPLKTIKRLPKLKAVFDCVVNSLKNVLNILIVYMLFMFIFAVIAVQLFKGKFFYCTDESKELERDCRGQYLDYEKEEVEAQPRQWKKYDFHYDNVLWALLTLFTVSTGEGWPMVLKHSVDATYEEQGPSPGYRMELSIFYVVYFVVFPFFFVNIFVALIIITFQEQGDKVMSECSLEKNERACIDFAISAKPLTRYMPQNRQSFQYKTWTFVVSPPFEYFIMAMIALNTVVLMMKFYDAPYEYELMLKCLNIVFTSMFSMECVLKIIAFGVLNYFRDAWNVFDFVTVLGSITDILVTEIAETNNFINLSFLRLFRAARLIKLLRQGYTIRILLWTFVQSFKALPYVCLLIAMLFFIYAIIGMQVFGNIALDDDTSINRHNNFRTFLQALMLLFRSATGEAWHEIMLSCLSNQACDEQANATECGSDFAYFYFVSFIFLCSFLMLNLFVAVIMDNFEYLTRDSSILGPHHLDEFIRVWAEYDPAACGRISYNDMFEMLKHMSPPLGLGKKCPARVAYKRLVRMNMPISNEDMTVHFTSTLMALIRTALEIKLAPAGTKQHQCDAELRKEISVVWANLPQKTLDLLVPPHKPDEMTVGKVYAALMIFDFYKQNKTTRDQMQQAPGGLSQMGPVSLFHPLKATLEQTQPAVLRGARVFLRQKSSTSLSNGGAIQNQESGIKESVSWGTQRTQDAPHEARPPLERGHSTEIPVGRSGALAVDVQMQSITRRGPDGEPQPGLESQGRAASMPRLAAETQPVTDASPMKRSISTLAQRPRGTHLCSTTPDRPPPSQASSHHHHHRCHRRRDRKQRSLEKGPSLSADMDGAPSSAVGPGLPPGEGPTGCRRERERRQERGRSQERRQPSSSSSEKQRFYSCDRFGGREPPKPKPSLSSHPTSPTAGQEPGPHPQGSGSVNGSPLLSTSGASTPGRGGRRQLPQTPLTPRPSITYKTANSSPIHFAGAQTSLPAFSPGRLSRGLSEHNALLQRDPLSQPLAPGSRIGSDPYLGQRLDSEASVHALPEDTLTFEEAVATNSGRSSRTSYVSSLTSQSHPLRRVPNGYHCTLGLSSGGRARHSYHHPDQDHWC
T4 sequence (Q02410 whole entry): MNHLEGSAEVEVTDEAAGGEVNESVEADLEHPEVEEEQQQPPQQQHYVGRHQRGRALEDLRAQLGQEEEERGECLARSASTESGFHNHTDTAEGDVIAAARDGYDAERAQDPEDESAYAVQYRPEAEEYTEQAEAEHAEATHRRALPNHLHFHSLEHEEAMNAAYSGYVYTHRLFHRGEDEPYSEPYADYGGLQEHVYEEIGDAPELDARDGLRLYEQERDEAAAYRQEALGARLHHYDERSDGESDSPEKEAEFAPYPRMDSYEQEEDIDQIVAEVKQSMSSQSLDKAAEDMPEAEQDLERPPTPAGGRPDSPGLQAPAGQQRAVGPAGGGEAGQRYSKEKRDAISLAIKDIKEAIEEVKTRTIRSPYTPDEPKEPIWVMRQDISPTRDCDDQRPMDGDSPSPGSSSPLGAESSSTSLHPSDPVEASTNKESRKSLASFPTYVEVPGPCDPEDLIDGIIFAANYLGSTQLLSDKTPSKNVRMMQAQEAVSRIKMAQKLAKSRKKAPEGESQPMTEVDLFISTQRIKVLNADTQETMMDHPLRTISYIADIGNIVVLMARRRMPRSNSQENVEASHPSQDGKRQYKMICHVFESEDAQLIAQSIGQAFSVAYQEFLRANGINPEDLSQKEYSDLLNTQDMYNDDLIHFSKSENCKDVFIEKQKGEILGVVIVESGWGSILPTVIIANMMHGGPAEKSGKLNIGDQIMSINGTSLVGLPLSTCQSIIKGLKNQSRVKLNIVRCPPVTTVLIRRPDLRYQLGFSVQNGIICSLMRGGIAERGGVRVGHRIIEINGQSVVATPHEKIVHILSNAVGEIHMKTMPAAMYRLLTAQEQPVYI
The target of experiment [15] is Induced myeloid leukemia cell differentiation protein Mcl-1 (Homo sapiens, UniProt Q07820). Format: functional.
For experiment [16], the target named is T4, Voltage-gated N-type calcium channel alpha-1B subunit/Amyloid beta A4 precursor protein-binding family A member 1. The experiment is classed as protein assay. This is another data set of the same source.
For experiment [17], the target named is T5, Hexokinase-1 (Homo sapiens, UniProt P19367).
T5 sequence (P19367 whole entry): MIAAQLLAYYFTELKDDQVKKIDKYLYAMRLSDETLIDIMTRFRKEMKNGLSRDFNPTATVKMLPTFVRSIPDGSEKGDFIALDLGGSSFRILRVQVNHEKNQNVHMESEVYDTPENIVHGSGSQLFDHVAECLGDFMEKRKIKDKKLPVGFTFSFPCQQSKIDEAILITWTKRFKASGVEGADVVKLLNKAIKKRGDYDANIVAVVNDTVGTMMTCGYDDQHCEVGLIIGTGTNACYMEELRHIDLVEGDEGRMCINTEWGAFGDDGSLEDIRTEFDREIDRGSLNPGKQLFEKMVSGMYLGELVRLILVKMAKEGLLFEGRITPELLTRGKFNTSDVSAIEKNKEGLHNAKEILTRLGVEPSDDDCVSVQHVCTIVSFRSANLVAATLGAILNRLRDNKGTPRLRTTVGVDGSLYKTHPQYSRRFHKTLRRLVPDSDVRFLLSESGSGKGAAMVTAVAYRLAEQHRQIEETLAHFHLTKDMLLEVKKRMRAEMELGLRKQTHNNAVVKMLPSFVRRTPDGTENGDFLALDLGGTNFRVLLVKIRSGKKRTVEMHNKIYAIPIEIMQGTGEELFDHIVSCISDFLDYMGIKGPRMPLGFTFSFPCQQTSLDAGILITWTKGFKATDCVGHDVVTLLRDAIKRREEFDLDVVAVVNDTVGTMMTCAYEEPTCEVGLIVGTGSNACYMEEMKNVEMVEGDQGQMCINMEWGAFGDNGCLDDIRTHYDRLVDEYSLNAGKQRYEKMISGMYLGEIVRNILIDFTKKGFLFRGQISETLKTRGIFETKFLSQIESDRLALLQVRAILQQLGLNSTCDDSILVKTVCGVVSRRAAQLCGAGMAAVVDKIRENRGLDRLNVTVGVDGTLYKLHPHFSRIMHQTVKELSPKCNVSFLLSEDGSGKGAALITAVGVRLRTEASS
The experiment in a line: SAR analysis of small molecule inhibitors of hexokinase domain containing I (HKDC1) in the hexokinase 1 selectivity assay. [Related pubchem assays (depositor defined):AID493160, AID493190]. Format: functional.

For experiment [18], the target named is T6, Hexokinase HKDC1 (Homo sapiens, UniProt Q2TB90).
T6 sequence (Q2TB90 whole entry): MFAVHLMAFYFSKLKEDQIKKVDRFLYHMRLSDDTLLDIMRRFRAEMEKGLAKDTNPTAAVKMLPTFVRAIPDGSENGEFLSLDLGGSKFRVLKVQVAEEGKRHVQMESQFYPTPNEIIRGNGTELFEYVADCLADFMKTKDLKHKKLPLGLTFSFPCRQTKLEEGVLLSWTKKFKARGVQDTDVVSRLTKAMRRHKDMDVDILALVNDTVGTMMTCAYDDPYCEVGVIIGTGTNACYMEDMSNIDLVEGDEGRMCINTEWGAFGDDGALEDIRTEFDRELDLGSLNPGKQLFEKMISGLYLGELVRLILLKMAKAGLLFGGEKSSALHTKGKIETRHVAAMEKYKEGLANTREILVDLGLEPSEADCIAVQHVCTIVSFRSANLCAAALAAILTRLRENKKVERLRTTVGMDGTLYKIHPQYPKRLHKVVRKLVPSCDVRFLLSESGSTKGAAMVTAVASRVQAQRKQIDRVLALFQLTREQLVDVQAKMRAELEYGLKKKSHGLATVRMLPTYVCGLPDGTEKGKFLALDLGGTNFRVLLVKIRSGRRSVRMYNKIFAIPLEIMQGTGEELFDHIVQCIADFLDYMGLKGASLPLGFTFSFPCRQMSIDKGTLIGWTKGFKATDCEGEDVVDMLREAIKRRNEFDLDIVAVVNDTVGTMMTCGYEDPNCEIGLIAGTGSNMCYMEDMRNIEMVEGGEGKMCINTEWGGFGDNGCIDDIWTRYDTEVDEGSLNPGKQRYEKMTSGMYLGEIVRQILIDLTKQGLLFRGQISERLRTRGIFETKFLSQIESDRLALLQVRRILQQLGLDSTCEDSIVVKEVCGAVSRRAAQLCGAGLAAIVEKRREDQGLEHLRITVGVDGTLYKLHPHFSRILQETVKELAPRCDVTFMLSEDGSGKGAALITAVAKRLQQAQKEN
The experiment in a line: SAR analysis of small molecule inhibitors of hexokinase domain containing I (HKDC1). [Related pubchem assays (depositor defined):AID493160, AID493190]. Format: functional.

Serine/threonine-protein phosphatase, sequence (B9W6M3 whole entry): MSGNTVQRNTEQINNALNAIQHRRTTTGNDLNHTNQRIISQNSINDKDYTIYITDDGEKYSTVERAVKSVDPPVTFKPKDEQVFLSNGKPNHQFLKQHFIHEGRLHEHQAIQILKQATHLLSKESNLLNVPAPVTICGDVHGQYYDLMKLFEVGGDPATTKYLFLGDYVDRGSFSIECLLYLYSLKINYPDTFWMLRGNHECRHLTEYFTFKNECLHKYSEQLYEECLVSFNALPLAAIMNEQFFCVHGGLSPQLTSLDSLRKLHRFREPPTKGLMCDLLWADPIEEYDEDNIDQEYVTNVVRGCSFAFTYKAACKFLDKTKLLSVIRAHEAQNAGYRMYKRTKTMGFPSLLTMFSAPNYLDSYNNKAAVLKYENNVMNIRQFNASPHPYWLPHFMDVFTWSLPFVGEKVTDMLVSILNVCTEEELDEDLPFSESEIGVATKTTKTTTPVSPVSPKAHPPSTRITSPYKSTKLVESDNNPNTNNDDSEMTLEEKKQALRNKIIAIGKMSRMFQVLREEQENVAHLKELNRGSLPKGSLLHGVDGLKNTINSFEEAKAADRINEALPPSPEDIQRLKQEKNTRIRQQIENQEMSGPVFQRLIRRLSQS

For the molecule `Cn1c(N2CCOCC2)c(/C=N/O)c2ccccc21`, the IC50 (in general, the concentration that gives 50% inhibition) was 74.5 µM (active) in experiment [1], > 67.5 µM (inactive) in experiment [2] and > 67.5 µM (inactive) in [3].

For `Cc1ccc2nc(N3CCCCCC3)cc(C)c2c1`, the IC50 was 12.8 µM (active) in experiment [4], 1.3 µM (active) in experiment [5] and 900 nM (active) in [6].

On to `N#Cc1cc(C#N)c(N2CCN(c3cccc(Cl)n3)CC2)nc1N`, for which the EC50 (commonly the concentration at which the effect is half-maximal) in experiment [7] was 1.47 µM (active); in experiment [8], 23.7 µM (active); in experiment [9], > 150 µM (inactive); in experiment [10] it was > 180 µM (inactive).

Consider `CC[C@H](C)/C=C(C)/C=C/C1=CC2=CC(=O)[C@]3(C)OC(=O)[C@@H](C(C)=O)[C@@H]3C2=CO1`, for which the CC50 (in general, the concentration at which the toxic effect on the cells reaches its halfway point) in [11] is > 40 µM (active). Further, the IC50 is > 49.7 µM (inactive) in experiment [12] and 8.86 µM (active) in experiment [13].

Regarding `Cc1cc2nc(/C=C/c3nc4cc(C)c(C)cc4[nH]3)[nH]c2cc1C`, the IC50 was > 49.7 µM (inactive) in experiment [12]; > 50 µM (inactive) in [14]; 3.67 µM (active) in [15]; 20.9 µM (inactive) in experiment [13]; 18.5 µM (active) in experiment [16].

On to `O=c1c2ccccc2nc(/C=C/c2cccnc2)n1Cc1ccc(F)cc1`, for which the IC50 in experiment [17] and in [18] was > 80 µM (inactive) throughout.

Regarding `Cc1cc(C)c(S(=O)(=O)Nc2cc(SCCC(=O)O)c(O)c3ccccc23)cc1C`, the IC50 in [17] is > 80 µM (inactive); in experiment [18], 9.9 µM (active).
